As a reminder, the IC50 is the concentration needed to halve the response being measured. One may read the inhibition as the share of the control response that was lost under treatment. By CL/F is commonly meant the apparent clearance, not corrected for the fraction that reaches the circulation. As a reminder, the AUC(0-t) is exposure summed from dosing to a finite time, without extrapolation to infinity. By Cmax is commonly meant the highest concentration seen after dosing. By half-life is commonly meant how long it takes for the measured level to halve. A low value points to fast loss. For orientation: Tmax means the time at which the peak concentration occurs.

From patent US20230321123A1, “INHIBITORS OF PSEUDOMONAS AERUGINOSA VIRULENCE FACTOR LasB” (Helmholtz-Zentrum Für Infektionsforschung GmbH, priority 2020, published 2023) come the findings set out here.

The target of one data set is CYP2D6 (Homo sapiens, UniProt P10635). The data set can be described thus: CYP inhibition CYP2D6. It is filed as in vitro ADME. An excerpt:
(§1) As the compound of example 2 has shown an impressive activity in the in vitro LasB inhibition assay, high selectivity over a broad spectrum of human enzymes and no signs of cytotoxicity in vitro, it has been subjected to a more advanced safety screening (Table 9).

Another data set can be described thus: Cytotoxicity A549. The data set is classed as cell-based. The note with it: human; A549. How it is done: The compounds of examples 1 and 5 were not toxic against the cell lines HepG2, HEK293 and A549 (Table 5). Additionally, the inhibitory effect against P. aeruginosa PA14 was evaluated to exclude an antibacterial effect of the compounds of the present invention. This is important as it was the aim to target virulence and not viability of the bacteria. […]

Another data set addresses ADAM17 (TACE) (Homo sapiens, UniProt P78536). The data set can be described thus: Selectivity against human off-targets: ADAM17 (TACE). It is filed as biochemical. The note with it: read-out: IC50 ADAM17 (TACE).
A further data set concerns the target MMP-3 (Homo sapiens, UniProt P08254). As to the kind of experiment: Selectivity against human off-targets: MMP-3. It is filed as biochemical. The note with it: read-out: Inhibition [%] MMP-3. The source says: (§2) The inhibition of zinc-containing human enzymes is described frequently for LasB inhibitors and poses a serious difficulty in the development of selective compounds. Particularly, the inhibition of matrix metalloproteases (MMPs) should be avoided. To further investigate this issue, three derivatives (the compounds of examples 1, 5 and 8) have been tested for their selectivity against several human off-targets, including six MMPs, ADAM17 (TACE), HDAC-3 and HDAC-8 (Table 4). The selectivity of the compounds is particularly high for MMPs and HDACs, whereas the inhibition of ADAM17 was considerably stronger.

The target of another data set is T1, MMP-1 (Homo sapiens, UniProt P03956).
T1 sequence (P03956 100-469): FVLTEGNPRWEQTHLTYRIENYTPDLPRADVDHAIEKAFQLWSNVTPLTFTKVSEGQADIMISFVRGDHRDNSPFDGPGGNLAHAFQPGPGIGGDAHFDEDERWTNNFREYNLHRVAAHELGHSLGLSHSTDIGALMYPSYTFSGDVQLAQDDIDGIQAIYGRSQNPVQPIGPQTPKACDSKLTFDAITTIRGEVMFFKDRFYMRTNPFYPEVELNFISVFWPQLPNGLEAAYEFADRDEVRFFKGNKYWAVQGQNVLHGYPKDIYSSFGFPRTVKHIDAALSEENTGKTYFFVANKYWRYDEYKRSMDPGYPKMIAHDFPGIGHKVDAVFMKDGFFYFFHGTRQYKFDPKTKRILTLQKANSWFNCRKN
As to the kind of experiment: Selectivity against human off-targets: MMP-1. It is filed as biochemical. The settings on record: read-out: Inhibition [%] MMP-1.
Source text: as §2

For a further data set, the target named is T2, MMP-2 (Homo sapiens, UniProt P08253).
T2 sequence (P08253 110-660): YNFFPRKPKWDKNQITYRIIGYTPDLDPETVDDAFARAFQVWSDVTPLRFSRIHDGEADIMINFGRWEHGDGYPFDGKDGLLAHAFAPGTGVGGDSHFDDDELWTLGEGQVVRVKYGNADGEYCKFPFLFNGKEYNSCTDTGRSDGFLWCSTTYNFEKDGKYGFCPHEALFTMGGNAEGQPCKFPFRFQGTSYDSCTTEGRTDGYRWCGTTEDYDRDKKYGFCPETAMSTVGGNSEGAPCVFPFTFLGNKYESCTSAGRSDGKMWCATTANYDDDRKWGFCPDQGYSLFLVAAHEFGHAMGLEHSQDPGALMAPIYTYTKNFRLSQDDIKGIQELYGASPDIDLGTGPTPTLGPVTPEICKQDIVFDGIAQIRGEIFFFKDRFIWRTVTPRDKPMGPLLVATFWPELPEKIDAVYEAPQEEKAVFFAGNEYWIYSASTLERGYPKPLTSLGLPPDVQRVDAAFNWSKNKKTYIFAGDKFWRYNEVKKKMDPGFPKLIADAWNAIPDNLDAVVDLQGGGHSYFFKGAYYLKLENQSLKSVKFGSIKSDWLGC
As to the kind of experiment: Selectivity against human off-targets: MMP-2. It is filed as biochemical. The settings on record: read-out: Inhibition [%] MMP-2.
Source text: as §2

The target of the next data set is T3, MMP-7 (Homo sapiens, UniProt P09237).
T3 sequence (P09237 95-267): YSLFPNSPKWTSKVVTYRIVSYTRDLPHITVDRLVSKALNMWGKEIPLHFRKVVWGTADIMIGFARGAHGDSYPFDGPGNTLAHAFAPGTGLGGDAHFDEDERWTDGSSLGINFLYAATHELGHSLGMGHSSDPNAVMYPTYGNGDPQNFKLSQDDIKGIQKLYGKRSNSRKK
The data set can be described thus: Selectivity against human off-targets: MMP-7. It is filed as biochemical. The settings on record: read-out: Inhibition [%] MMP-7.
Source text: as §2

For another data set, the target named is HDAC-3 (Homo sapiens, UniProt O15379). As to the kind of experiment: Selectivity against human off-targets: HDAC-3. It is filed as biochemical. The note with it: read-out: IC50 HDAC-3.
Chain of HDAC-3 (O15379 whole entry): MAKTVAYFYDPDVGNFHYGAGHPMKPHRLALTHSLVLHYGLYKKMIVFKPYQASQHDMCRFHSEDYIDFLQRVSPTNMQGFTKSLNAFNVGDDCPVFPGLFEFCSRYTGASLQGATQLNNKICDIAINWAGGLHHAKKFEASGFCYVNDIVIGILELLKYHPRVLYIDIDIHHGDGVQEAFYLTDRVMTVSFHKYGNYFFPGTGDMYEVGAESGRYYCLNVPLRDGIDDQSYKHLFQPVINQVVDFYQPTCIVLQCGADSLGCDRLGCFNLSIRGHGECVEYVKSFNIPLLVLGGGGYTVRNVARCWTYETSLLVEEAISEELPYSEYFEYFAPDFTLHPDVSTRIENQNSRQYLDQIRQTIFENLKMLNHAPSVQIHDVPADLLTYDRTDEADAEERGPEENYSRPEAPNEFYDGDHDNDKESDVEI
Chain of HDAC-3 (Q9Y618 395-489 partner limits assumed): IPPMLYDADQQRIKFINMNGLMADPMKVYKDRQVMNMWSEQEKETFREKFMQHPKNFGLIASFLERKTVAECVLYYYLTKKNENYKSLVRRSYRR
Source text: as §2

The target of another data set is T4, CYP1A (Homo sapiens, UniProt P05177).
T4 sequence (P05177 2-516): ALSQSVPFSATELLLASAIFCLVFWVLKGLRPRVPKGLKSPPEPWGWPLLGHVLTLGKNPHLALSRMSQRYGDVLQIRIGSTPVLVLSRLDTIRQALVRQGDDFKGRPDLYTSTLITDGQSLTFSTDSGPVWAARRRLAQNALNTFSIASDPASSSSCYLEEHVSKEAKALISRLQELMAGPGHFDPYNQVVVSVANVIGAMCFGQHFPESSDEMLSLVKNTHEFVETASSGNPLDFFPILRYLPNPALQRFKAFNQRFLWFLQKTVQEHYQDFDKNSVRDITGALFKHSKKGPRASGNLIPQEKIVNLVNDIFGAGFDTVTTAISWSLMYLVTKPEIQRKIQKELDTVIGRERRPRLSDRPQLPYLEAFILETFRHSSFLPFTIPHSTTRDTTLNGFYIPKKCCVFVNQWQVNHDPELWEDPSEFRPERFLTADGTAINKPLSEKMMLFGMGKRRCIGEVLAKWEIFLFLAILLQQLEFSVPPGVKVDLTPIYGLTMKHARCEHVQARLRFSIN
The data set can be described thus: CYP inhibition CYP1A. It is filed as in vitro ADME.
Source text: as §1

A short description of data set [1]: Pharmacokinetic (PK) studies in mice. It is filed as in vivo. The note with it: 10 mg/kg. The protocol:
Moreover, the compound of example 2 was subjected to pharmacokinetic (PK) studies in mice (Table 10). Injected intravenously (i.v.) at a dose of 10 mg/kg, it is detectable in blood for 2 h.

In the next data set the target is MMP-8 (Homo sapiens, UniProt P22894). As to the kind of experiment: Selectivity against human off-targets: MMP-8. The data set is classed as biochemical. The settings on record: read-out: Inhibition [%] MMP-8.
Chain of MMP-8 (P22894 101-467): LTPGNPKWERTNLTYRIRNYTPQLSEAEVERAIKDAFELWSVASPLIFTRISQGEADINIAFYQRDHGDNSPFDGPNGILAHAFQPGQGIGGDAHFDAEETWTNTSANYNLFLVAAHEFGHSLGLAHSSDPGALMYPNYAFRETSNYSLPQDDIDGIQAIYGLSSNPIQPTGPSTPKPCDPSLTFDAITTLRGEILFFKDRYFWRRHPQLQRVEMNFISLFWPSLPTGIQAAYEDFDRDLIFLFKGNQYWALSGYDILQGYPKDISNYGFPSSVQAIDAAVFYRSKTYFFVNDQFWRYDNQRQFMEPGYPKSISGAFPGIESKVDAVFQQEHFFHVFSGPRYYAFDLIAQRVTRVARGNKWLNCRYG
Source text: as §2

Chain of ADAM17 (TACE) (P78536 215-824): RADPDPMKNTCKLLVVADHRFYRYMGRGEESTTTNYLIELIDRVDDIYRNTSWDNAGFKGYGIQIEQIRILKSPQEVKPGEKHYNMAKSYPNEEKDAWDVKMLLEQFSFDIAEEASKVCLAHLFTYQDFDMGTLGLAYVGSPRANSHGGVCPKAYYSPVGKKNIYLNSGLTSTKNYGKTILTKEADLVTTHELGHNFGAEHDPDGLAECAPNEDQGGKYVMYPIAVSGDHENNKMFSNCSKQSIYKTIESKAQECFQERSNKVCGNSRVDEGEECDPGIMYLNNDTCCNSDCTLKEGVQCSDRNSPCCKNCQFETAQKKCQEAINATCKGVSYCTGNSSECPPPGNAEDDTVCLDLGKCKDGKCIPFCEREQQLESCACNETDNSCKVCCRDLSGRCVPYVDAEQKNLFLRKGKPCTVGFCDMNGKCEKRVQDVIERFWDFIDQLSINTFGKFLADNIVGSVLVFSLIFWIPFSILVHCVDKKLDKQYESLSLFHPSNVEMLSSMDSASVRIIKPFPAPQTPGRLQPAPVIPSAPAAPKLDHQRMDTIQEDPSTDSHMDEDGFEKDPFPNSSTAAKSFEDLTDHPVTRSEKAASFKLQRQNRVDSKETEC
Chain of MMP-3 (P08254 100-477): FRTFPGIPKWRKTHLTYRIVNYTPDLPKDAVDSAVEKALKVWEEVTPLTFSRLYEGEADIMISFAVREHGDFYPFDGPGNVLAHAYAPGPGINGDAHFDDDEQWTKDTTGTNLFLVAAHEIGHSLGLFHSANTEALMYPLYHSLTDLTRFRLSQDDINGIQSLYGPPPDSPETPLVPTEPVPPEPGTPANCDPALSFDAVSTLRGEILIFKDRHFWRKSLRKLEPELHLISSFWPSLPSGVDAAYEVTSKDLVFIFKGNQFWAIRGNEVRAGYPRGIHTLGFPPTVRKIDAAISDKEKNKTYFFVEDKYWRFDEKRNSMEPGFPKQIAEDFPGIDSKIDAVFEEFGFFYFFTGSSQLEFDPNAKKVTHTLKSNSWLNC
Chain of CYP2D6 (P10635 whole entry): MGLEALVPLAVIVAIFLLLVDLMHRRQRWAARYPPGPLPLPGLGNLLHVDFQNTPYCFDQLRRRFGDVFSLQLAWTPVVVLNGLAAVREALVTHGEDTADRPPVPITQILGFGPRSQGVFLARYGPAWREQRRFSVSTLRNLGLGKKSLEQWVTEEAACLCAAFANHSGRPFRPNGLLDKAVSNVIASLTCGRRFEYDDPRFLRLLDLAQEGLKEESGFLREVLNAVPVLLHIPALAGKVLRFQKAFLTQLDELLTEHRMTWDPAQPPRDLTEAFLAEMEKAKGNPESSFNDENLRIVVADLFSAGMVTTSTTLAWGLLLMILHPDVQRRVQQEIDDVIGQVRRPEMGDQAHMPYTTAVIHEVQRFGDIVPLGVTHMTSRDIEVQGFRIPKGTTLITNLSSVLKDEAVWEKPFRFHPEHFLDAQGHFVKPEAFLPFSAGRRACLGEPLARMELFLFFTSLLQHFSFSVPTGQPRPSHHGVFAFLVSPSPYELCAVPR

On to `Cc1ccc(NC(=O)C(S)CC(C)C)cc1` (centres unmarked) [Example 2, 2-Mercapto-4-methyl-N-(p-tolyl)pentanamide], for which the IC50 against CYP2D6 is 22.3 µM; in the data set “Cytotoxicity A549” it was above 100 µM; on ADAM17 (TACE), 4.5 ± 1.8 µM; on HDAC-3, above 100 µM; at CYP1A, above 25 µM. For the same molecule, the inhibition at 100 µM at MMP-3, on MMP-1, on MMP-2, at MMP-7 and at MMP-8 was below 10% in each case. This molecule also yielded a CL/F in [1] (i.v.) of 505 ± 119 mL/min/kg. In [1] (i.v.), this molecule displayed a V/F of 45.5 ± 2.8 L/kg. In addition, the “time detectable in blood” value in data set [1] (i.v.) came to 2 h. Also, in data set [1] (mouse, blood, iv), the exposure AUC(0-t) is 241 ± 22 ng·h/mL. In addition, the Cmax in data set [1] (mouse, blood, iv) worked out at 200 ng/mL. The half-life in data set [1] (mouse, blood, iv) came out at 50 min. Besides, in data set [1] (mouse, blood, iv, first measuring point), the Tmax is 15 min.
